Substitutions are numbered along the chain they refer to. Each block holds one molecule with its values, some of them ahead of it.
Tests used:
[1] = Bioavailability and pharmacokinetic properties (volume of distribution, plasma clearance)
Description: (§1) Bioavailability and Pharmacokinetic Properties
(§2) The volume of distribution (Vdist) relates the amount of the drug in the body to the concentration of the drug in the blood or plasma. […] The volume of distribution reflects the extent to which the drug is present in the extravascular tissue. A large volume of distribution reflects the tendency of a compound to bind to the tissue components compared with plasma protein binding.
(§3) To test for volume of distribution, Male Sprague Dawley rats (N=3) are administered a single 1 mg/kg intravenous dose of compound. Multiple plasma samples are collected at time points from 0.08 to 24 hours post-dose. The plasma samples are analyzed by LC/MS/MS to determine the plasma concentrations. Plasma pharmacokinetic calculations are performed to determine the pharmacokinetic parameters including Vdist and plasma clearance (Clp).
(§4) Further, the plasma clearance (CLp) is a measure of the rate of removal of the drug from the body. Following an intravenous dose and first-order kinetics, the plasma clearance may be determined using the following equation: CLp=Dose/AUC, where
(§5) AUC is the total area under the curve that describes the concentration of the drug in the plasma as a function of time from zero to infinity.

[2] = biological target: T1, binding of 125I-sauvagine to the cerebellum (Rattus norvegicus, UniProt P35353); experiment: In vivo potency assessment using ex vivo binding; details: oral route
T1 construct: from tissue; host or cells: rat cerebellum
T1 sequence (P35353 24-415): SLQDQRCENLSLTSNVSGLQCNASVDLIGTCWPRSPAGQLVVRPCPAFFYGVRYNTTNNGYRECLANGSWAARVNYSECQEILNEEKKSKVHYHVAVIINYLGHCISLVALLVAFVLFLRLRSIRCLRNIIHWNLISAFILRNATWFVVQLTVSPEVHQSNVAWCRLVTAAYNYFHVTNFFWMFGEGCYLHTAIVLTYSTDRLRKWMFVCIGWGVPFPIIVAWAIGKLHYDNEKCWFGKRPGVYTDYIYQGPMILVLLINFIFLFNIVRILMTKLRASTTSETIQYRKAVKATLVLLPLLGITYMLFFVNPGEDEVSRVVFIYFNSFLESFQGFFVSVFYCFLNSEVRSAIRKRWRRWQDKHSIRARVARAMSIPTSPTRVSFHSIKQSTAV
Experimental: In Vivo Potency Assessment Using Ex Vivo Binding
To assess in vivo potency, a compound of the present invention is evaluated using ex vivo binding. Using the procedures as provided in D. R. Gehlert et al., EJP 509: 145-153 (2005), a compound is administered to a rat via the oral route.

human CRF1 = biological target: T2, human CRF1 (Homo sapiens, UniProt P34998); experiment: CRF1 filter binding assay; details: HEK-hCRF1 membranes, 125I-sauvagine; read-out: Ki (inhibition constant)
T2 construct: expressed in transfected cells
T2 sequence (P34998 24-415): T1 sequence (P35353 24-415) with R6H, N9S, T13A, V16I, V153M, A163G, V209I, H229Y, R356H
Experimental: CRF1 Filter Binding Assay
The limitations of plasmid-based human CRF1 expression, in terms of generating a recombinant cell line with sufficient receptor density to develop a binding assay, are overcome by using a Phoenix retroviral expression system licensed from Stanford. The stable HEK-hCRF1 cell line is used to prepare membranes and binding reactions (200 μL) are set up as follows: 50 μL of ^125I-sauvagine (0.2 nM final), 50 μL compound and 100 μL CRF1 membrane (25 μg/reaction). The reactions are incubated at room temperature for 2 h and then terminated by filtration through pre-treated FB Millipore glass fiber filter plates (96 well). The plates are washed twice with ice-cold assay buffer (50 mM tris, 12.5 mM NaCl, 1 mM EDTA, 10 mM MgCl2, 0.05% BSA, pH 7.2), air dried over night and counted with 100 μL Microscint 40 in a MicroBeta counter. Non-specific binding (NSB) is determined in the presence of 0.5 μM non-labeled sauvagine. Triplicate determinations are typically run and the median data points plotted by Graph Pad Prism.

in vivo = details: male, Sprague Dawley, rat, iv
Description: as §1, §2, §3, §4, §5

human CRF2 = biological target: T3, human CRF2 (Homo sapiens, UniProt Q13324); experiment: CRF2 filter binding assay; details: at a concentration of 50 μM
T3 construct: expressed in transfected cells
T3 sequence (Q13324 1-411): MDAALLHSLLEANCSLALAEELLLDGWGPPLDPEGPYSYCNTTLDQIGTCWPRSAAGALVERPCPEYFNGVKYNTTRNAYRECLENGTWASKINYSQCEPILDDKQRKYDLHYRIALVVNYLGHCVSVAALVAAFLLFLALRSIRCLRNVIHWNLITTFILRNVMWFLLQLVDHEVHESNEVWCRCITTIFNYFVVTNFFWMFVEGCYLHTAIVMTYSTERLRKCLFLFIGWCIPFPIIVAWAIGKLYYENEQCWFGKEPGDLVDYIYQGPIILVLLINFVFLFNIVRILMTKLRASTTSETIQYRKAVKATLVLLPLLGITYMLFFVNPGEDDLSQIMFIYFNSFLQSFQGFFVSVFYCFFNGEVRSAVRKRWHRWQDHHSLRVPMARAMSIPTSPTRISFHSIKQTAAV
Experimental: CRF2 Filter Binding Assay
The limitations of plasmid-based human CRF2 expression, in terms of generating a recombinant cell line with sufficient receptor density to develop a binding assay, are overcome by using a Phoenix retroviral expression system licensed from Stanford. The stable HEK-hCRF2 cell line is used to prepare membranes and binding reactions (200 μL) are set up as follows: 50 μL of ^125I-sauvagine (0.2 nM final concentration), 50 μL compound and 100 μL CRF2 membrane (25 μg/reaction). The reactions are incubated at room temperature for 2 hours and then terminated by filtration through pre-treated FB Millipore glass fiber filter plates (96 well). The plates are washed twice with ice-cold assay buffer (50 mM tris, 12.5 mM NaCl, 1 mM EDTA, 10 mM MgCl2, 0.05% BSA, pH 7.2), air dried over night and counted with 100 μL Microscint 40 in a MicroBeta counter. Non-specific binding (NSB) is determined in the presence of 0.5 μM non-labeled sauvagine. Alternatively, compounds are evaluated using a Scintillation Proximity assay. […] Bound radioactivity is assessed using a Wallac Trilux scintillation counter. Binding is assessed typically using triplicate determinations and the median data points plotted by Graph Pad Prism. […]

[3] = male, Sprague Dawley, rat, plasma, iv, 1 mg/kg

rat Vdist (volume of distribution) ([1]; single intravenous dose of 1 mg/kg, analyzed separately): 76 L/kg
Compound: CCCN(CCC)c1cc(C)nc2c(-c3cnc(N(C)C)cc3C)c(C)nn12 [NBI30775]

Vd [1, 3]: 114 L/kg | clearance [1, 3]: 83 mL/min/kg
Compound: CCCCN(CC)c1nc(C)nc2c1c(C)cn2-c1c(C)cc(C)cc1C [CP154526]

inhibition at 10 mg/kg [2]: 65% | Ki (human CRF1): 6.2 nM | clearance (in vivo): 23.6 mL/min/kg | Vd (in vivo; 1 mg/kg): 7.2 L/kg | inhibition at 50 µM (human CRF2): 11%
Compound: CCC(CC)c1cc(C)nc2c(-c3sc(N(C)C)nc3Cl)c(C)nn12 [Example 15, {4-Chloro-5-[7-(1-ethyl-propyl)-2,5-dimethyl-pyrazolo[1,5-a]pyrimidin-3-yl]-thiazol-2-yl}-dimethyl-amine]
